Data published in US20240285613A1, “TREATMENT FOR AUTOIMMUNE DISEASES” (LDN Pharma Limited, priority 2021, published 2024).

What was measured:
Format in all cases: cell-based, human
Conditions in all cases: 4 h
[1] = tested on: 5-HT receptor 1E, mRNA; assay: Microarray gene expression in CD3+ lymphocytes, probe ILMN_1794095 (HTR1E)
Protocol: (§1) CD3+ lymphocytes were isolated from the blood of haematologically normal volunteers. Cells placed into 25 cm^3 flasks at a concentration of 1×10^6/ml, and left to equilibrate in an incubator with a humidified atmosphere and 5% CO2 in air at 37° C. […] RNA extraction was performed using Trizol according to standard procedures, before being processed for microarray analysis according to the standard methodologies. Briefly, equal amounts of biotinylated cRNA was hybridised to the Illumina human HT 12-v3 arrays for 18 h and subsequently processed according to manufacturer's instructions before scanning on an Illumina BeadArray Reader. The image data were processed using default values in GenomeStudio v2009.1 with imputation of missing data, before loading onto GeneSpring v9.0 for data normalisation and filtering. Data analyses were performed using Excel software, and the ratio of gene expression signals in treated vs. untreated calculated.

[2] = tested on: 5-HT receptor 2B, mRNA; assay: Microarray gene expression in CD3+ lymphocytes, probe ILMN_1735764 (HTR2B)
Protocol: as §1

[3] = tested on: 5-HT receptor 2C, mRNA; assay: Microarray gene expression in CD3+ lymphocytes, probe ILMN_1801357 (HTR2C)
Protocol: as §1

[4] = tested on: 5-HT receptor 3A, transcript variant 2, mRNA; assay: Microarray gene expression in CD3+ lymphocytes, probe ILMN_1662070 (HTR3A)
Protocol: as §1

[5] = tested on: 5-HT receptor 3A, transcript variant 1, mRNA; assay: Microarray gene expression in CD3+ lymphocytes, probe ILMN_1681492 (HTR3A)
Protocol: as §1

[6] = tested on: 5-HT receptor 3A, transcript variant 2, mRNA; assay: Microarray gene expression in CD3+ lymphocytes, probe ILMN_2371079 (HTR3A)
Protocol: as §1

[7] = tested on: 5-HT receptor 4, transcript variant a, mRNA; assay: Microarray gene expression in CD3+ lymphocytes, probe ILMN_1676350 (HTR4)
Protocol: as §1

[8] = tested on: 5-HT receptor 4, transcript variant hb, mRNA; assay: Microarray gene expression in CD3+ lymphocytes, probe ILMN_1808258 (HTR4)
Protocol: as §1

[9] = tested on: 5-HT receptor 7 (adenylate cyclase-coupled), transcript variant a, mRNA; assay: Microarray gene expression in CD3+ lymphocytes, probe ILMN_1744217 (HTR7)
Protocol: as §1

[10] = tested on: mRNA for one or more of 5-HT receptor proteins; assay: Microarray gene expression in CD3+ lymphocytes, summary over 5-HT receptors
Protocol: as §1

O=C1CC[C@@]2(O)[C@H]3Cc4ccc(O)c5c4[C@@]2(CCN3CC2CC2)[C@H]1O5 [NTX, 17-cyclopropylmethyl-4.5-epoxy-3,14-dihydroxymorphinan-6-one]
gene expression signal, HTR1E ([1]; LDN 10 nM): 101.20
gene expression signal, HTR1E ([1]; NTX 10 uM): 95.70
gene expression signal, HTR2B ([2]; LDN 10 nM): 147.45
gene expression signal, HTR2B ([2]; NTX 10 uM): 177.95
gene expression signal, HTR2C ([3]; LDN 10 nM): 85.50
gene expression signal, HTR2C ([3]; NTX 10 uM): 89.50
gene expression signal, HTR3A transcript variant 2 ([4]; LDN 10 nM): 82.35
gene expression signal, HTR3A transcript variant 2 ([4]; NTX 10 uM): 80.60
gene expression signal, HTR3A transcript variant 1 ([5]; LDN 10 nM): 94.00
gene expression signal, HTR3A transcript variant 1 ([5]; NTX 10 uM): 86.75
gene expression signal, HTR3A transcript variant 2 ([6]; LDN 10 nM): 124.70
gene expression signal, HTR3A transcript variant 2 ([6]; NTX 10 uM): 151.75
gene expression signal, HTR4 transcript variant a ([7]; LDN 10 nM): 100.20
gene expression signal, HTR4 transcript variant a ([7]; NTX 10 uM): 96.10
gene expression signal, HTR4 transcript variant hb ([8]; LDN 10 nM): 93.50
gene expression signal, HTR4 transcript variant hb ([8]; NTX 10 uM): 88.20
gene expression signal, HTR7 transcript variant a ([9]; LDN 10 nM): 80.00
gene expression signal, HTR7 transcript variant a ([9]; NTX 10 uM): 86.60
levels of mRNA for one or more of 5-HT receptor proteins ([10]; higher dose naltrexone (10 uM)): increase the levels of mRNA
levels of mRNA for one or more of 5-HT receptor proteins ([10]; low dose naltrexone (10 nM)): increase the levels of mRNA
